Reference: ChEMBL document CHEMBL4507294, “Data for DCP probe MSD-CYP11B2” (2021)
The source made the active and inactive calls. The calls are words filed in the database; no cut-off is given here.

Experiments:
[1] = target: Delta-type opioid receptor (Homo sapiens) (UniProt P41143); settings: Compound concentration 10.0 uM
[2] = target: Histamine H4 receptor (Homo sapiens) (UniProt Q9H3N8); settings: Compound concentration 10.0 uM
[3] = target: 5-hydroxytryptamine receptor 6 (Homo sapiens, UniProt P50406); test: GPCRScan assay: inhibition of 5-HT6; design: radioligand conc. used [nm] 2.0 – 4.0, parental cells stable HEK
[4] = target: Cytochrome P450 11B1, mitochondrial (Homo sapiens, UniProt P15538); test: Assay using V79 cell lines (CYP11B1); assay type: cell-based
[5] = target: Cytochrome P450 11B2, mitochondrial (Homo sapiens, UniProt P19099); test: Assay using V79 cell lines (CYP11B2); assay type: cell-based
[6] = target: Neuropeptide Y receptor type 1 (Homo sapiens) (UniProt P25929); test: Inhibition of Neuropeptide Y Y1 at 10 µM in the Eurofins-Panlabs radioligand binding assay (Eurofins_assay_257010); settings: Compound concentration 10.0 uM
[7] = target: T1, 5-hydroxytryptamine receptor 2B (Homo sapiens, UniProt P41595); test: Panlabs assay (HTR2B); design: compound concentration 10 uM
[8] = target: D(1A) dopamine receptor (Homo sapiens) (UniProt P21728); settings: Compound concentration 10.0 uM
[9] = target: Cannabinoid receptor 1 (Homo sapiens) (UniProt P21554); settings: Compound concentration 10.0 uM
[10] = target: Alpha-1D adrenergic receptor (Homo sapiens) (UniProt P25100); settings: Compound concentration 10.0 uM
[11] = target: Histamine H3 receptor (Homo sapiens) (UniProt Q9Y5N1); settings: Compound concentration 10.0 uM
[12] = target: T2, 5-hydroxytryptamine receptor 3A (Homo sapiens) (UniProt P46098); test: Inhibition of Serotonin (5-Hydroxytryptamine) 5-HT3 at 10 µM in the Eurofins-Panlabs radioligand binding assay (Eurofins_assay_271910); design: ligand concentration 0.69 nM; settings: Compound concentration 10.0 uM
T2 sequence (whole entry): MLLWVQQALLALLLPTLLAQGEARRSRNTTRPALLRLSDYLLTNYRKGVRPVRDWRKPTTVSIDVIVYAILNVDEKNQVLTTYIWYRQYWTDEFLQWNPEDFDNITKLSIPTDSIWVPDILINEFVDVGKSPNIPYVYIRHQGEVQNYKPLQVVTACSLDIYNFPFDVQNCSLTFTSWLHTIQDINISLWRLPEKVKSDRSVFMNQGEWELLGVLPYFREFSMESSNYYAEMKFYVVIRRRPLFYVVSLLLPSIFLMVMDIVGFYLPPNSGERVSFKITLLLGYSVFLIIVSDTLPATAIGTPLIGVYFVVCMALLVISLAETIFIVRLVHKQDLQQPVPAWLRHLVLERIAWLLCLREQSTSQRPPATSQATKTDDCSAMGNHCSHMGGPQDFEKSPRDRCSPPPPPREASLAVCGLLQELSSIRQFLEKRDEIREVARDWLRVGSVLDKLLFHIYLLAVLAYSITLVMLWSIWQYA

[13] = target: Gamma-aminobutyric acid type B receptor subunit 1 (Homo sapiens) (UniProt Q9UBS5); settings: Rattus norvegicus; Compound concentration 10.0 uM
[14] = target: Cholecystokinin receptor type A (Homo sapiens) (UniProt P32238); test: Inhibition of Cholecystokinin CCK1 (CCKA) at 10 µM in the Eurofins-Panlabs radioligand binding assay (Eurofins_assay_218020); settings: Compound concentration 10.0 uM
[15] = target: Glutamate NMDA receptor (Rattus norvegicus) (UniProt P35439+Q00959+Q00960+Q00961+Q62645+Q8VHN2+Q9R1M7); settings: Compound concentration 10.0 uM
[16] = target: Muscarinic acetylcholine receptor M4 (Homo sapiens) (UniProt P08173); settings: Compound concentration 10.0 uM
[17] = target: Alpha-1A adrenergic receptor (Homo sapiens) (UniProt P35348); settings: Compound concentration 10.0 uM
[18] = target: T3, GABA-A receptor; anion channel (Rattus norvegicus) (UniProt O09028+P15431+P18506+P18508+P19969+P20236+P23574+P23576+P28471+P28473+P30191+P62813+P63079+P63138+Q91ZM7+Q9ES14); settings: Compound concentration 10.0 uM
[19] = target: Acetylcholine receptor subunit alpha (Homo sapiens) (UniProt P02708); test: Inhibition of Nicotinic Acetylcholine D1, Bungarotoxin at 10 µM in the Eurofins-Panlabs radioligand binding assay (Eurofins_assay_258700); settings: Compound concentration 10.0 uM
[20] = target: Glutamate receptor ionotropic, kainate (Rattus norvegicus) (UniProt P22756+Q01812+P42260+P42264+Q63273); test: Inhibition of Glutamate, Kainate at 10 µM in the Eurofins-Panlabs radioligand binding assay (Eurofins_assay_232700); settings: Compound concentration 10.0 uM
[21] = target: Adenosine receptor A1 (Homo sapiens) (UniProt P30542); settings: Compound concentration 10.0 uM
[22] = target: T4, Alpha-2B adrenergic receptor (Homo sapiens, UniProt P18089); test: Panlabs assay (ADRA2B); design: compound concentration 10 uM
T4 sequence (P18089 whole entry): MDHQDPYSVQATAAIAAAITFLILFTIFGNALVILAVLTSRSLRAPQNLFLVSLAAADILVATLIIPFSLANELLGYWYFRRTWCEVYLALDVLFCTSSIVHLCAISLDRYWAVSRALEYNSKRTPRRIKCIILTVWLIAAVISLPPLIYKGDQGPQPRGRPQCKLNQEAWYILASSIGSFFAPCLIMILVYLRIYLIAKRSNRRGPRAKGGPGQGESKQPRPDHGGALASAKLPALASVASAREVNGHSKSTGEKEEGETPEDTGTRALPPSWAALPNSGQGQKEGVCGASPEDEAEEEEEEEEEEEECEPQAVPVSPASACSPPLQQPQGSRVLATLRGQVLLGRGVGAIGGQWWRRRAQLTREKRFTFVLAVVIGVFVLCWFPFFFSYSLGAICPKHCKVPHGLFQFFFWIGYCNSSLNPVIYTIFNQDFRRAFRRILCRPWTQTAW

[23] = target: T1, 5-hydroxytryptamine receptor 2B; test: Inhibition of Serotonin (5-Hydroxytryptamine) 5-HT2B at compound concentration of 10.0 uM in the Eurofins-Panlabs radioligand binding assay (Eurofins_assay_271700); design: ligand concentration 1.2 nM, non-specific ligand with concentration 10 uM Serotonin (5-HT), incubation time 60 min, incubation temperature 37 C
[24] = target: Melanocyte-stimulating hormone receptor (Homo sapiens) (UniProt Q01726); test: Melanocortin MC1 Eurofins-Panlabs radioligand binding assay; settings: Compound concentration 10.0 uM
[25] = target: Histamine H1 receptor (Homo sapiens) (UniProt P35367); settings: Compound concentration 10.0 uM
[26] = target: T3, GABA-A receptor; anion channel (Rattus norvegicus); settings: Compound concentration 10.0 uM; remark: listed apart in the source

T1 sequence (P41595 whole entry): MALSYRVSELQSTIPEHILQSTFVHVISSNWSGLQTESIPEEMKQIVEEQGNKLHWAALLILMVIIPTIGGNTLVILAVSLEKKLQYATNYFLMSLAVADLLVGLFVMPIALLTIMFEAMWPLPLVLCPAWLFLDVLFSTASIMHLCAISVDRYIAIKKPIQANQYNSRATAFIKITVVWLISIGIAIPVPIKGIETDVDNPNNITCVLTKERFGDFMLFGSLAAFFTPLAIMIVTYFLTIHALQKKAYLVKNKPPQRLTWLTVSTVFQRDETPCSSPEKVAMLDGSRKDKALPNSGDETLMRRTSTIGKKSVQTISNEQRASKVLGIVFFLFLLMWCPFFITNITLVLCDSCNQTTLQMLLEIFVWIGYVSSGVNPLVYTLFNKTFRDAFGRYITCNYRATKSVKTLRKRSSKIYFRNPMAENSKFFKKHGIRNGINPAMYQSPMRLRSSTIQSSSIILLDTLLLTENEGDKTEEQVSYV
Sequence of Delta-type opioid receptor (Homo sapiens) (P41143 whole entry): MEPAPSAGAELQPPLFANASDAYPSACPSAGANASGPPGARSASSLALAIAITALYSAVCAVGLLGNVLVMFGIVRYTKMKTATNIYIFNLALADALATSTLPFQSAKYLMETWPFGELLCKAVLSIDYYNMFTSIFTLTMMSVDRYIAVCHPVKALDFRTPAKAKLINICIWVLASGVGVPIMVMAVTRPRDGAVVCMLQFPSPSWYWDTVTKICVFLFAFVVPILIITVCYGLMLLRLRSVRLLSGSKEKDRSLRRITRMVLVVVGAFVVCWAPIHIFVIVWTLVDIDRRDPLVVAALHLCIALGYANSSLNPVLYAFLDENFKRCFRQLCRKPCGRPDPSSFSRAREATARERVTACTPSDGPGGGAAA
Sequence of Histamine H4 receptor (Homo sapiens) (Q9H3N8 whole entry): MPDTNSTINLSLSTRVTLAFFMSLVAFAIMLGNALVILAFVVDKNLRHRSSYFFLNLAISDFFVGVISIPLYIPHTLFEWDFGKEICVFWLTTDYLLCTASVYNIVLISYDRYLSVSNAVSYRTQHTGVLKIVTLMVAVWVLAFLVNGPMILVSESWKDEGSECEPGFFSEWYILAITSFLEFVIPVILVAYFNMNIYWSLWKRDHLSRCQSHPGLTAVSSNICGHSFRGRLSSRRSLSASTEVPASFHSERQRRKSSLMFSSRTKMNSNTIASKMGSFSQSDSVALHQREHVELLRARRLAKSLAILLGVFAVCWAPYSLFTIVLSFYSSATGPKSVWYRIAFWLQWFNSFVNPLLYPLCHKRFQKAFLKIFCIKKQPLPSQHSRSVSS
Sequence of Cytochrome P450 11B1, mitochondrial (P15538 whole entry): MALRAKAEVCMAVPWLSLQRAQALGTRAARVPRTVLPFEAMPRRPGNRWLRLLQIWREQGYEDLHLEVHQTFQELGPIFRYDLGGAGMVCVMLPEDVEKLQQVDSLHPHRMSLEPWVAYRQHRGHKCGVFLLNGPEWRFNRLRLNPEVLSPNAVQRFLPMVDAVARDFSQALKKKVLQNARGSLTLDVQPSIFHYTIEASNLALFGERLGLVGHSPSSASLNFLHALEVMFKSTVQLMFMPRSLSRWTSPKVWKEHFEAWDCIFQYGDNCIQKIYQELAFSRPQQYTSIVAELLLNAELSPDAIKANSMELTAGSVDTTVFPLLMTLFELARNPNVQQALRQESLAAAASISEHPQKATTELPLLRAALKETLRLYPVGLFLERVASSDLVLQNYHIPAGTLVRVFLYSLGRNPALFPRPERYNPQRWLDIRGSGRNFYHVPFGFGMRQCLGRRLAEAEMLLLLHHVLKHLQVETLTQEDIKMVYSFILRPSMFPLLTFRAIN
Sequence of Melanocyte-stimulating hormone receptor (Homo sapiens) (Q01726 whole entry, looked up): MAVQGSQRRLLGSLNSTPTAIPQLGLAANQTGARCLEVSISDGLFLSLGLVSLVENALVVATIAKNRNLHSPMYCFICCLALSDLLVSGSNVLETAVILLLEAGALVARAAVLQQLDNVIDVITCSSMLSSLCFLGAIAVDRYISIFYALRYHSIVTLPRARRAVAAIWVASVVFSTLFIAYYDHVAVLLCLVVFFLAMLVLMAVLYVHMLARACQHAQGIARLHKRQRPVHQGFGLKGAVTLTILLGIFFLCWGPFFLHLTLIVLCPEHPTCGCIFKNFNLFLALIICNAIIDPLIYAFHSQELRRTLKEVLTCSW
Sequence of Adenosine receptor A1 (Homo sapiens) (P30542 whole entry): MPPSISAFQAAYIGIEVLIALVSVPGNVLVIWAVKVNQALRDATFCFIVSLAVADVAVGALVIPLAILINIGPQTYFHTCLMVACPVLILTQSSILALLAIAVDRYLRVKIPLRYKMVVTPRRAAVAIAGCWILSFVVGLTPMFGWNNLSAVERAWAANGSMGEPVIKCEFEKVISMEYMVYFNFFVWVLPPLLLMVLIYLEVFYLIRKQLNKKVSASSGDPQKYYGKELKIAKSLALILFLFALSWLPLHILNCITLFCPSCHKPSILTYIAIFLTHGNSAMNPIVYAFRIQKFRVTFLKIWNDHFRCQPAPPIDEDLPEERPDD
Sequence of D(1A) dopamine receptor (Homo sapiens) (P21728 whole entry): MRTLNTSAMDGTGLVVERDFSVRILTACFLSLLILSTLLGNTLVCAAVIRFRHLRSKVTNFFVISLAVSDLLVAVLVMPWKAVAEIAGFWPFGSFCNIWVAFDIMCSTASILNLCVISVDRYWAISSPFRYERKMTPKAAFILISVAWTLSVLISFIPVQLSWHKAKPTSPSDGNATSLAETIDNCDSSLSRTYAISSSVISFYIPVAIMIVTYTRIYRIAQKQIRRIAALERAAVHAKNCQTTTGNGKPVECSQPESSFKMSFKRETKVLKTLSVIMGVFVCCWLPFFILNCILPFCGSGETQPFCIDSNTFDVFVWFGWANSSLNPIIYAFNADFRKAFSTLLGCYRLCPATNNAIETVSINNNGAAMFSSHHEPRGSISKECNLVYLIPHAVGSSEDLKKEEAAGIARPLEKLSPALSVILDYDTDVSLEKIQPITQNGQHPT
Sequence of Neuropeptide Y receptor type 1 (Homo sapiens) (P25929 whole entry): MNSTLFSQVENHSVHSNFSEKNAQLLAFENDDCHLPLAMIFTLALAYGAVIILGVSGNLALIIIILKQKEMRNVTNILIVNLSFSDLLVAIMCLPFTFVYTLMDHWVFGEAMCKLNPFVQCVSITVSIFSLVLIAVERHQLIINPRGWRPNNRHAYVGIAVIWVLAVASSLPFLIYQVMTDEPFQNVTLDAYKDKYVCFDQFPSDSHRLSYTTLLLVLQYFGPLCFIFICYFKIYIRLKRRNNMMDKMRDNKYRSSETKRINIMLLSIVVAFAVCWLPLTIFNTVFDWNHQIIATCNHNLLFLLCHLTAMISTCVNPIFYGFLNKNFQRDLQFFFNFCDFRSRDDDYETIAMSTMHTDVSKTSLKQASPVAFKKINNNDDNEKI
Sequence of Histamine H3 receptor (Homo sapiens) (Q9Y5N1 whole entry): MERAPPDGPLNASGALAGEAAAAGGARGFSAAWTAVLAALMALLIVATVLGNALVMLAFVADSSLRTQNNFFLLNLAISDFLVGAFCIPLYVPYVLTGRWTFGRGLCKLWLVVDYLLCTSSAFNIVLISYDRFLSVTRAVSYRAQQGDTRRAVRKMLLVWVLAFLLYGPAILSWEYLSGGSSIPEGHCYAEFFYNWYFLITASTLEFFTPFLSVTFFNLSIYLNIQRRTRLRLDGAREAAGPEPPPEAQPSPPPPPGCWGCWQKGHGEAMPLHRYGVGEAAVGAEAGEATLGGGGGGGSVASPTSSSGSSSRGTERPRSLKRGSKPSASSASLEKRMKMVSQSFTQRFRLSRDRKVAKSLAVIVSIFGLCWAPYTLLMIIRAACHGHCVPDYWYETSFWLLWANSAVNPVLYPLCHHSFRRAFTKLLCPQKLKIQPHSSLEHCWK
Sequence of Cannabinoid receptor 1 (Homo sapiens) (P21554 whole entry): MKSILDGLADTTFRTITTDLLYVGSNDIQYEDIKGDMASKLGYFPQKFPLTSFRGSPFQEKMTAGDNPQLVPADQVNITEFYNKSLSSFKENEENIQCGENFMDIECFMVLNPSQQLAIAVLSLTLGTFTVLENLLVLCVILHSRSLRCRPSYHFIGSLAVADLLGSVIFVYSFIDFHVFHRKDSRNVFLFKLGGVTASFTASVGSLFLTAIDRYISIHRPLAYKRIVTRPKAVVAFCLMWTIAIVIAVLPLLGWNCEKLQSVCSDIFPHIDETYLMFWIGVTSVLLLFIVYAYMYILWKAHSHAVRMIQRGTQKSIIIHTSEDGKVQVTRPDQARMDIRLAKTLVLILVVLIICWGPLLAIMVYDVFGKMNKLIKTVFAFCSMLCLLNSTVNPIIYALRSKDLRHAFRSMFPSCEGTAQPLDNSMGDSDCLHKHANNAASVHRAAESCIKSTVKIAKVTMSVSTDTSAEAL
Sequence of Cytochrome P450 11B2, mitochondrial (P19099 whole entry): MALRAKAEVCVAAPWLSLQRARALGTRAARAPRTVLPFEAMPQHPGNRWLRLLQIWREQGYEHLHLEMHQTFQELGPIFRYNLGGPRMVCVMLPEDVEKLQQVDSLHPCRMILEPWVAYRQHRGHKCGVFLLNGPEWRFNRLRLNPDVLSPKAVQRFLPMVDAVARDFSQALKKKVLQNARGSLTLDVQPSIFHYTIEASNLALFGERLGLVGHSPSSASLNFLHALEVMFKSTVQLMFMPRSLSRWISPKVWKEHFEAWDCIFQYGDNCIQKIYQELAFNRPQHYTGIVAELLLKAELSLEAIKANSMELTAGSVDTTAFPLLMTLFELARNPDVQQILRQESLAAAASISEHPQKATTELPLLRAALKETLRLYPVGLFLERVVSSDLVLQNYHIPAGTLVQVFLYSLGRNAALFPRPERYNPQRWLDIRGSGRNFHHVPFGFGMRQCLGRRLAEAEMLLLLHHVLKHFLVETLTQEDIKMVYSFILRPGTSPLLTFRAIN

Question: Which inhibition [1] does the source give for `FC(F)(F)c1ccc2c(c1)nc(-c1cccnc1)n2C1CC1` [MSD-CYP11B2-Negative-control] here?
Answer: The inhibition was -9.33%.

Question: And the inhibition [2]?
Answer: The inhibition was -9.43%.

Question: What about the Ki [3] of the same compound?
Answer: The Ki was 3.06 µM.

Question: What about the IC50 [4] of the same compound?
Answer: The IC50 was > 10 µM (not active).

Question: And the IC50 [5]?
Answer: The IC50 was > 10 µM (not active).

Question: With `CC(C)(O)c1cncc(-c2nc3ccc(F)cc3n2C2CC2)c1` [MSD-CYP11B2] as the compound, how does the inhibition [6] read?
Answer: The inhibition was 11%.

Question: And the IC50 [7]?
Answer: Its IC50 is 5.33 µM.

Question: And the inhibition [8]?
Answer: Its inhibition is -1%.

Question: What about the inhibition [9] of the same compound?
Answer: The inhibition was 7%.

Question: And the inhibition [10]?
Answer: The inhibition was 2.58%.

Question: What about the inhibition [11] of the same compound?
Answer: The inhibition was -4.55%.

Question: What about the inhibition [12] of the same compound?
Answer: Its inhibition is -4%.

Question: And the inhibition [13]?
Answer: The inhibition was 6%.

Question: What about the inhibition [14] of the same compound?
Answer: The inhibition was 4%.

Question: And the inhibition [15]?
Answer: The inhibition was -1%.

Question: And the inhibition [16]?
Answer: The inhibition was -0.57%.

Question: What about the inhibition [17] of the same compound?
Answer: Its inhibition is -3.03%.

Question: And the inhibition [18]?
Answer: Its inhibition is 6.26%.

Question: And the inhibition [19]?
Answer: Its inhibition is 0%.

Question: What about the inhibition [20] of the same compound?
Answer: Its inhibition is -5%.

Question: And the inhibition [21]?
Answer: The inhibition was 20%.

Question: What about the IC50 [22] of the same compound?
Answer: The IC50 was 4.7 µM (active).

Question: And the IC50 [23]?
Answer: Its IC50 is 5.33 µM.

Question: What about the Ki [23] of the same compound?
Answer: The Ki was 3.39 µM.

Question: And the inhibition [24]?
Answer: The inhibition was -1%.

Question: What about the inhibition [25] of the same compound?
Answer: Its inhibition is 23%.

Question: And the inhibition [26]?
Answer: The inhibition was 16%.
